# Test results taken from patent US20240109891A1, “NOVEL SUBSTITUTED TRICYCLIC AZA-HETEROCYCLES AS SOS1 INHIBITORS” (Viva Star Biosciences (Suzhou) Co., Ltd., priority 2021, published 2024).
# Columns and labels:
# [1] = molecular target: T1, KRAS G12D and SOS1 proteins (Homo sapiens, UniProt Q07889); test: KRAS-G12D/SOS1 binding assay (HTRF); details: Tag1-SOS1 / Tag2-KRAS G12D, 10 μM GTP
# T1 construct: purchased Cisbio 63ADK000CB17PEG
# T1 sequence (Q07889 1-1333): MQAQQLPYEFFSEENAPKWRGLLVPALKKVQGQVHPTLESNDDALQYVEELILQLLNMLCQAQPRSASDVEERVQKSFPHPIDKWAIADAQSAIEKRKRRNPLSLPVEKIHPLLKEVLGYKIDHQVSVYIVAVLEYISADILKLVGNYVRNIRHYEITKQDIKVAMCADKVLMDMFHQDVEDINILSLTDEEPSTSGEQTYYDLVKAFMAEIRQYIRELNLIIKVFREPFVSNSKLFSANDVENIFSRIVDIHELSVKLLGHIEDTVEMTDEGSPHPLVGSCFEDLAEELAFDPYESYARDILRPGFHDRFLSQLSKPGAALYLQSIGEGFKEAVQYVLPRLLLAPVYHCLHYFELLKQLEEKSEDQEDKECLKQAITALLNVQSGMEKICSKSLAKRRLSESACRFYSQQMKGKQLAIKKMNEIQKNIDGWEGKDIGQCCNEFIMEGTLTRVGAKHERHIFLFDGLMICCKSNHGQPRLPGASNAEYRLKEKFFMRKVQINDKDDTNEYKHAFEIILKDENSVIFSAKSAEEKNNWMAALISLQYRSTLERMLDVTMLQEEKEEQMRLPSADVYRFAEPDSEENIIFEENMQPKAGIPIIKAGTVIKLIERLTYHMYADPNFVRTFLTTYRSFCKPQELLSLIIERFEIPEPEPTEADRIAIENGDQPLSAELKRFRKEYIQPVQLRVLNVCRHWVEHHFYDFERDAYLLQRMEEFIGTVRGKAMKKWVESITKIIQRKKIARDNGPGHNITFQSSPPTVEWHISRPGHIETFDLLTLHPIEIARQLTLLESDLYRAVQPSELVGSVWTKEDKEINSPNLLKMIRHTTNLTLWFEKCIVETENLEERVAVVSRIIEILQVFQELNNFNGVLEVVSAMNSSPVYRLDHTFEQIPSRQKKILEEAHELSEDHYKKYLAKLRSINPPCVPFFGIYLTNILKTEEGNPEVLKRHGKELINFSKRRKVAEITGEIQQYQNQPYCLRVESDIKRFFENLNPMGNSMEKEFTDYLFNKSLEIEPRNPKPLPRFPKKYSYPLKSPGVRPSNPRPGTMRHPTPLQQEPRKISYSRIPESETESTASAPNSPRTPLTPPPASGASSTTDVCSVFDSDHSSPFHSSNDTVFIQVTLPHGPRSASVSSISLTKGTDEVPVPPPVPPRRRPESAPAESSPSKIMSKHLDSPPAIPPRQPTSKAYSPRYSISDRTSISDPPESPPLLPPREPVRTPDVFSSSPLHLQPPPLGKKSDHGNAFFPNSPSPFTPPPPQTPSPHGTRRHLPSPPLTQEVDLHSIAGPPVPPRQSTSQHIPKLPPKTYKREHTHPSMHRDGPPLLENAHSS
# Method: (§1) KRAS-WT (or G12C/G12D/G12V)/SOS1 Binding Assay
# (§2) Low IC50 values are indicative of high potency of the SOS1 inhibitor compounds in this assay setting.
# (§3) The KRAS-WT (or G12C/G12D/G12V)/SOS1 binding assay is performed using an assay kit (Cisbio, Cat #63ADK000CB15PEG or 63ADK000CB16PEG/63ADK000CB17PEG/63ADK000CB18PEG) according to the procedure recommended by the manufacturer. • 1) Thaw and prepare the working solution of Tag1-SOS1 protein and Tag2-KRAS-WT (or G12C/G12D/G12V) protein with final concentration of 10 μM GTP (Sigma, Cat #V900868). • 2) Thaw and prepare the working solution of anti-Tag1-Tb^3+ anti-Tag2-XL665. • 3) Dispense 2 μL of serially diluted compound, 4 μL of Tag1-SOS1 protein and 4 μL of Tag2-KRAS-WT (or G12C/G12D/G12V) protein with GTP into a ProxiPlate-384 Plus, white 384-shallow well microplate (PerkinElmer, Cat #6008280). • 4) Incubate the plate for 15 minutes at room temperature. • 5) Dispense 10 μL of pre-mixed anti-Tag1-Tb^3+ and anti-Tag2-XL665 into the plate. • 6) Seal the plate and incubate for 2 hours at room temperature. • 7) Remove the plate sealer and read on PHERAstar FS (BMG LABTECH, PHERAstar FS). • 8) Calculate the ratio of the acceptor and donor emission signals for each individual well using the following equation.
# (§4) [formula] • 9) IC50 values are fitted and calculated by HTRF signal values and log of compound concentrations to nonlinear regression [Log (inhibitor) vs. Response−Variable Slope (four parameters)] using the GraphPad Prism 8.0.
# [2] = molecular target: T2, KRAS-WT and SOS1 proteins (Homo sapiens, UniProt Q07889); test: KRAS-WT/SOS1 binding assay (HTRF); details: Tag1-SOS1 / Tag2-KRAS-WT, 10 μM GTP, read-out: Activity Data in Kras: SOS1 Assay, Wild Type
# T2 construct: purchased Cisbio 63ADK000CB15PEG
# T2 sequence (Q07889 1-1333): T1 sequence (Q07889 1-1333)
# Method: as §1, §2, §3, §4
SMILES,IC50 [1] [nM],IC50 [2] [nM]
"COc1cc2c(cc1O[C@H]1CCOC1)c(N[C@H](C)c1cccc(C(F)(F)F)c1)nc1nccn12 [Example 58, 8-methoxy-7-(((S)-tetrahydrofuran-3-yl)oxy)-N—((R)-1-(3-(trifluoromethyl)phenyl)ethyl)imidazo[1,2-a]quinazolin-5-amine]",< 100,< 100
"C[C@@H](Nc1nc2c(F)cnn2c2cc(=O)n(C3CC(F)(F)C3)cc12)c1cccc(C(F)(F)CO)c1 [Example 78, (R)-5-((1-(3-(1,1-difluoro-2-hydroxyethyl)phenyl)ethyl)amino)-7-(3,3-difluorocyclobutyl)-3-fluoropyrazolo[1,5-a]pyrido[3,4-e]pyrimidin-8(7H)-one]",< 100,< 100
"COCC(=O)N1CCC(c2cc3c(N[C@H](C)c4cccc(C(F)(F)CO)c4)nc(C)nc3n3cnnc23)CC1 [Example 11, (R)-1-(4-(4-((1-(3-(1,1-difluoro-2-hydroxyethyl)phenyl)ethyl)amino)-2-methyl-[1,2,4]triazolo[4′,3′:1,6]pyrido[2,3-d]pyrimidin-6-yl)piperidin-1-yl)-2-methoxyethan-1-one]",< 100,< 100
"Cc1nc(N[C@H](C)c2cccc(C(F)(F)CO)c2)c2cc(C3CCNCC3)c3nncn3c2n1 [Example 14, (R)-2,2-difluoro-2-(3-(1-((2-methyl-6-(piperidin-4-yl)-[1,2,4]triazolo[4′,3′:1,6]pyrido[2,3-d]pyrimidin-4-yl)amino)ethyl)phenyl)ethan-1-ol]",< 100,< 100
"CC(=O)N1CCC(c2cc3c(N[C@H](C)c4cc(C(C)(C)O)cc(C(F)(F)F)c4)nc(C)nc3n3cnnc23)CC1 [Example 13, (R)-1-(4-(4-((1-(3-(2-hydroxypropan-2-yl)-5-(trifluoromethyl)phenyl)ethyl)amino)-2-methyl-[1,2,4]triazolo[4′,3′:1,6]pyrido[2,3-d]pyrimidin-6-yl)piperidin-1-yl)ethan-1-one]",> 5000,> 5000
"C[C@@H](Nc1nc2ccnn2c2cc(=O)n([C@H]3CCOC3)cc12)c1cccc2c1CCC2(F)F [Example 71, 5-(((R)-1-(1,1-difluoro-2,3-dihydro-1H-inden-4-yl)ethyl)amino)-7-((S)-tetrahydrofuran-3-yl)pyrazolo[1,5-a]pyrido[3,4-e]pyrimidin-8(7H)-one]",< 100,< 100
"C[C@@H](Nc1nc2ccnn2c2cc(=O)n(C3CC(F)(F)C3)cc12)c1cccc(C(F)(F)CO)c1 [Example 66, (R)-5-((1-(3-(1,1-difluoro-2-hydroxyethyl)phenyl)ethyl)amino)-7-(3,3-difluorocyclobutyl)pyrazolo[1,5-a]pyrido[3,4-e]pyrimidin-8(7H)-one]",< 100,< 100
"Cc1nc(N[C@H](C)c2cccc3c2CCC3(F)F)c2cc(O[C@H]3CCOC3)c3c(cnn3C)c2n1 [Example 36, N-((R)-1-(1,1-difluoro-2,3-dihydro-1H-inden-4-yl)ethyl)-2,7-dimethyl-6-(((S)-tetrahydrofuran-3-yl)oxy)-7H-pyrazolo[3,4-h]quinazolin-4-amine]",< 100,< 100
"Cc1nc(N[C@H](C)c2cccc(C(F)(F)CO)c2)c2cc(N3CC[C@@H](O)C3)c3c(cnn3C)c2n1 [Example 44, (3R)-1-(4-{[(1R)-1-[3-(1,1-difluoro-2-hydroxyethyl)phenyl]ethyl]amino}-2,7-dimethyl-7H-pyrazolo[3,4-h]quinazolin-6-yl)pyrrolidin-3-ol]",< 100,< 100
"C[C@@H](Nc1nc2ccnn2c2cc(=O)n(C3(C)CC3)cc12)c1cccc(C(F)(F)F)n1 [Example 65, (R)-7-(1-methylcyclopropyl)-5-((1-(6-(trifluoromethyl)pyridin-2-yl)ethyl)amino)pyrazolo[1,5-a]pyrido[3,4-e]pyrimidin-8(7H)-one]",500 to 5000,500 to 5000
"Cc1nc(N[C@H](C)c2cccc(C(F)(F)CO)c2)c2cc(O[C@H]3CCN(C)C3)c3nncn3c2n1 [Example 22, 2,2-difluoro-2-(3-((R)-1-((2-methyl-6-(((S)-1-methylpyrrolidin-3-yl)oxy)-[1,2,4]triazolo[4′,3′:1,6]pyrido[2,3-d]pyrimidin-4-yl)amino)ethyl)phenyl)ethan-1-ol]",< 100,< 100
"C[C@@H](Nc1nc2ccnn2c2cc(=O)n(C3(C)CC3)cc12)c1cccc2c1CCC2(F)F [Example 62, (R)-5-((1-(1,1-difluoro-2,3-dihydro-1H-inden-4-yl)ethyl)amino)-7-(1-methylcyclopropyl)pyrazolo[1,5-a]pyrido[3,4-e]pyrimidin-8(7H)-one]",< 100,< 100
"Cc1nc(N[C@H](C)c2cccc(C(F)(F)CO)c2)c2cc([C@H]3CC[C@H](O)CC3)c3nncn3c2n1 [Example 16, Trans-(R)-4-(4-((1-(3-(1,1-difluoro-2-hydroxyethyl)phenyl)ethyl)amino)-2-methyl-[1,2,4]triazolo[4′,3′:1,6]pyrido[2,3-d]pyrimidin-6-yl)cyclohexan-1-ol]",< 100,< 100
"Cc1nc(N[C@H](C)c2cccc(C(F)(F)CO)c2)c2cc(N3CCC(O)C3)c3c(cnn3C)c2n1 (stereo partly drawn) [Example 42, 1-(4-{[(1R)-1-[3-(1,1-difluoro-2-hydroxyethyl)phenyl]ethyl]amino}-2,7-dimethyl-7H-pyrazolo[3,4-h]quinazolin-6-y)pyrrolidin-3-ol]",< 100,< 100
"CNCc1ccccc1-c1ccc([C@@H](C)Nc2nc3ccnn3c3cc(=O)n(C4(C)CC4)cc23)s1 [Example 74, 8-{[(1R)-1-(5-{2-[(methylamino)methyl]phenyl}thiophen-2-yl)ethyl]amino}-11-(1-methylcyclopropyl)-2,3,7,11-tetraazatricyclo[7.4.0.0^{2,6}]trideca-1(13),3,5,7,9-pentaen-12-one]",< 100,< 100
"COc1cc2c(cc1O[C@H]1CCOC1)c(N[C@H](C)c1cc(N)cc(C(F)(F)F)c1)nc1cncn12 [Example 57, N—((R)-1-(3-amino-5-(trifluoromethyl)phenyl)ethyl)-8-methoxy-7-(((S)-tetrahydrofuran-3-yl)oxy)imidazo[1,5-a]quinazolin-5-amine]",100 to 500,100 to 500
"C[C@@H](Nc1nc2ccnn2c2cc(=O)n(C3CCN(S(C)(=O)=O)CC3)cc12)c1cccc(C(F)(F)CO)c1 [Example 67, (R)-5-((1-(3-(1,1-difluoro-2-hydroxyethyl)phenyl)ethyl)amino)-7-(1-(methylsulfonyl)piperidin-4-yl)pyrazolo[1,5-a]pyrido[3,4-e]pyrimidin-8(7H)-one]",100 to 500,< 100
